# From patent US4123612A, “7-(5-Am ino-5-carboxyvaleramido)-3-(carbamoyoloxymethyl)-3-cephem-4-carboxylic acid” (Eli Lilly and Company, priority 1974, dated 1978)
# How the values were obtained:
# Escherichia coli EC 25 = assay: Bauer-Kirby disc diffusion, zone of inhibition; type: cell-based
# [1] = system: Staphylococcus aureus 3074; assay: Bauer-Kirby disc diffusion, zone of inhibition; type: cell-based
# Pseudomonas solanacearum = type: in vivo; conditions: 100 ppm.; 0 = no control, 4 = complete control; heavy infestation in controls
# Escherichia coli 0127 = assay: Bauer-Kirby disc diffusion, zone of inhibition; type: cell-based
# Pseudomonas sp. Ps 30 = assay: Bauer-Kirby disc diffusion, zone of inhibition; type: cell-based
# Proteus sp. PR6 = assay: Bauer-Kirby disc diffusion, zone of inhibition; type: cell-based
# Pseudomonas sp. Ps 24 = assay: Bauer-Kirby disc diffusion, zone of inhibition; type: cell-based
# physchem = conditions: 66% dimethylformamide-water
# Salmonella typhosa SA 16 = assay: Bauer-Kirby disc diffusion, zone of inhibition; conditions: Salmonella enterica
# Excerpt: (§1) The evaluation was made on the monoammonium salts of separated factors I and II.
# [2] = system: Ascaris lumbricoides var. suum; assay: anthelmintic evaluation in mice by treated feed, separate factors (Example 13); type: in vivo; conditions: 0.05 percent in diet, control 2.66
# Excerpt: The feeds were utilized as diets for separate groups of mice, five mice per group. About twelve hours after initiation of the feeding, the mice were infected with Ascaris lumbricoides var. suum ova. Another group of five mice was fed the non-medicated feed to serve as a control but was similarly infected at the same time with Ascaris lumbricoides var. suum. All groups were fed their respective feed and maintained under normal laboratory conditions for a period of eight days, at which time all mice were taken off feed. On the ninth day, all mice were sacrificed and the lungs examined to determine the presence, and if present, numbers, of lesions of Ascaris lumbricoides var. suum.
# In a further evaluation, the monoammonium salts of A16886I and A16886II were separately evaluated for the control of Ascaris lumbricoides var. suum. The evaluations were conducted in accordance with the procedure reported in Example 11 at a concentration in the diet of 0.05 percent.
# [3] = system: Staphylococcus aureus 3055; assay: Bauer-Kirby disc diffusion, zone of inhibition; type: cell-based
# solubility = type: physicochemical
# Salmonella typhosa SA 12 = assay: Bauer-Kirby disc diffusion, zone of inhibition; conditions: Salmonella enterica
# Excerpt: as §1
# [4] = system: Klebsiella-Aerobacter KA 25; assay: Bauer-Kirby disc diffusion, zone of inhibition; type: cell-based
# [5] = system: Klebsiella-Aerobacter KA 14; assay: Bauer-Kirby disc diffusion, zone of inhibition; type: cell-based
# Proteus sp. PR7 = assay: Bauer-Kirby disc diffusion, zone of inhibition; type: cell-based
smiles,measurement,setting,value
"COC1(NC(=O)CCCC(N)C(=O)O)C(=O)N2C(C(=O)O)=C(COC(N)=O)CS[C@@H]21 (stereo partly drawn) [A16886I, 7-(5-amino-5-carboxyvaleramido)-3-(carbamoyloxymethyl)-7-methoxy-3-cephem-4-carboxylic acid]",zone of inhibition at 0.5 µg/disc,"Escherichia coli EC 25; EC25, 0.5 μg./disc",0 mm
same,zone of inhibition at 1 µg/disc,"Escherichia coli EC 25; EC25, 1.0 μg./disc",0 mm
same,zone of inhibition at 2.5 µg/disc,"Escherichia coli EC 25; EC25, 2.5 μg./disc",9.1 mm
same,zone of inhibition at 5 µg/disc,"Escherichia coli EC 25; EC25, 5 μg./disc",12.5 mm
same,zone of inhibition at 10 µg/disc,"Escherichia coli EC 25; EC25, 10 μg./disc",15.1 mm
same,zone of inhibition at 30 µg/disc,"Escherichia coli EC 25; EC25, 30 μg./disc",19.6 mm
same,zone of inhibition at 0.5 µg/disc,[1]; 0.5 μg./disc,0 mm
same,zone of inhibition at 1 µg/disc,[1]; 1.0 μg./disc,0 mm
same,zone of inhibition at 2.5 µg/disc,[1]; 2.5 μg./disc,0 mm
same,zone of inhibition at 5 µg/disc,[1]; 5 μg./disc,0 mm
same,zone of inhibition at 10 µg/disc,[1]; 10 μg./disc,0 mm
same,zone of inhibition at 30 µg/disc,[1]; 30 μg./disc,0 mm
same,Disease Rating,Pseudomonas solanacearum,4
same,zone of inhibition at 0.5 µg/disc,Escherichia coli 0127; 0.5 μg./disc,8.4 mm
same,zone of inhibition at 1 µg/disc,Escherichia coli 0127; 1.0 μg./disc,12.7 mm
same,zone of inhibition at 2.5 µg/disc,Escherichia coli 0127; 2.5 μg./disc,15.9 mm
same,zone of inhibition at 5 µg/disc,Escherichia coli 0127; 5 μg./disc,18.6 mm
same,zone of inhibition at 10 µg/disc,Escherichia coli 0127; 10 μg./disc,20.7 mm
same,zone of inhibition at 30 µg/disc,Escherichia coli 0127; 30 μg./disc,25.6 mm
same,zone of inhibition at 0.5 µg/disc,"Pseudomonas sp. Ps 30; SP.PS30, 0.5 μg./disc",0 mm
same,zone of inhibition at 1 µg/disc,"Pseudomonas sp. Ps 30; SP.PS30, 1.0 μg./disc",0 mm
same,zone of inhibition at 2.5 µg/disc,"Pseudomonas sp. Ps 30; SP.PS30, 2.5 μg./disc",0 mm
same,zone of inhibition at 5 µg/disc,"Pseudomonas sp. Ps 30; SP.PS30, 5 μg./disc",0 mm
same,zone of inhibition at 10 µg/disc,"Pseudomonas sp. Ps 30; SP.PS30, 10 μg./disc",0 mm
same,zone of inhibition at 30 µg/disc,"Pseudomonas sp. Ps 30; SP.PS30, 30 μg./disc",0 mm
same,zone of inhibition at 0.5 µg/disc,Proteus sp. PR6; 0.5 μg./disc,0 mm
same,zone of inhibition at 1 µg/disc,Proteus sp. PR6; 1.0 μg./disc,9.9 mm
same,zone of inhibition at 2.5 µg/disc,Proteus sp. PR6; 2.5 μg./disc,13.6 mm
same,zone of inhibition at 5 µg/disc,Proteus sp. PR6; 5 μg./disc,16.7 mm
same,zone of inhibition at 10 µg/disc,Proteus sp. PR6; 10 μg./disc,19 mm
same,zone of inhibition at 30 µg/disc,Proteus sp. PR6; 30 μg./disc,23.2 mm
same,zone of inhibition at 0.5 µg/disc,"Pseudomonas sp. Ps 24; SP.PS24, 0.5 μg./disc",0 mm
same,zone of inhibition at 1 µg/disc,"Pseudomonas sp. Ps 24; SP.PS24, 1.0 μg./disc",10.1 mm
same,zone of inhibition at 2.5 µg/disc,"Pseudomonas sp. Ps 24; SP.PS24, 2.5 μg./disc, * = satellite colonies within zone (Factor II)",13.2 mm
same,zone of inhibition at 5 µg/disc,"Pseudomonas sp. Ps 24; SP.PS24, 5 μg./disc, * = satellite colonies within zone (Factor II)",15.7 mm
same,zone of inhibition at 10 µg/disc,"Pseudomonas sp. Ps 24; SP.PS24, 10 μg./disc",18.2 mm
same,zone of inhibition at 30 µg/disc,"Pseudomonas sp. Ps 24; SP.PS24, 30 μg./disc",23 mm
same,pKa,"physchem; pH 6.5, pK'a1",4.1
same,pKa,"physchem; pH 6.5, pK'a2",5.2
same,pKa,"physchem; pH 6.5, pK'a3",9.3
same,pKa,"physchem; pH 6.5, pK'a4",10.5
same,zone of inhibition at 0.5 µg/disc,Salmonella typhosa SA 16,0 mm
same,zone of inhibition at 1 µg/disc,Salmonella typhosa SA 16,9.3 mm
same,zone of inhibition at 2.5 µg/disc,Salmonella typhosa SA 16,13.1 mm
same,zone of inhibition at 5 µg/disc,Salmonella typhosa SA 16,16.2 mm
same,zone of inhibition at 10 µg/disc,Salmonella typhosa SA 16,19.6 mm
same,zone of inhibition at 30 µg/disc,Salmonella typhosa SA 16,24.2 mm
same,Average Number of Lung Lesions Per Group,[2],0.46
same,zone of inhibition at 0.5 µg/disc,[3]; 0.5 μg./disc,0 mm
same,zone of inhibition at 1 µg/disc,[3]; 1.0 μg./disc,0 mm
same,zone of inhibition at 2.5 µg/disc,[3]; 2.5 μg./disc,0 mm
same,zone of inhibition at 5 µg/disc,[3]; 5 μg./disc,0 mm
same,zone of inhibition at 10 µg/disc,[3]; 10 μg./disc,0 mm
same,zone of inhibition at 30 µg/disc,[3]; 30 μg./disc,0 mm
same,solubility in acetonitrile and other organic solvents,solubility; acetonitrile and other organic solvents,essentially insoluble
same,solubility in lower alkanols,solubility; lower alkanols,slightly soluble
same,solubility in water,solubility; water,very soluble
same,zone of inhibition at 0.5 µg/disc,Salmonella typhosa SA 12,8 mm
same,zone of inhibition at 1 µg/disc,Salmonella typhosa SA 12,11.3 mm
same,zone of inhibition at 2.5 µg/disc,Salmonella typhosa SA 12,16.9 mm
same,zone of inhibition at 5 µg/disc,Salmonella typhosa SA 12,19.9 mm
same,zone of inhibition at 10 µg/disc,Salmonella typhosa SA 12,22.8 mm
same,zone of inhibition at 30 µg/disc,Salmonella typhosa SA 12,27.2 mm
same,zone of inhibition at 0.5 µg/disc,[4]; 0.5 μg./disc,0 mm
same,zone of inhibition at 1 µg/disc,[4]; 1.0 μg./disc,0 mm
same,zone of inhibition at 2.5 µg/disc,[4]; 2.5 μg./disc,9 mm
same,zone of inhibition at 5 µg/disc,[4]; 5 μg./disc,12.3 mm
same,zone of inhibition at 10 µg/disc,[4]; 10 μg./disc,15.8 mm
same,zone of inhibition at 30 µg/disc,[4]; 30 μg./disc,22.1 mm
same,zone of inhibition at 0.5 µg/disc,[5]; 0.5 μg./disc,0 mm
same,zone of inhibition at 1 µg/disc,[5]; 1.0 μg./disc,7.6 mm
same,zone of inhibition at 2.5 µg/disc,[5]; 2.5 μg./disc,11.4 mm
same,zone of inhibition at 5 µg/disc,[5]; 5 μg./disc,15.4 mm
same,zone of inhibition at 10 µg/disc,[5]; 10 μg./disc,18.8 mm
same,zone of inhibition at 30 µg/disc,[5]; 30 μg./disc,23 mm
same,zone of inhibition at 0.5 µg/disc,Proteus sp. PR7; 0.5 μg./disc,0 mm
same,zone of inhibition at 1 µg/disc,Proteus sp. PR7; 1.0 μg./disc,0 mm
same,zone of inhibition at 2.5 µg/disc,Proteus sp. PR7; 2.5 μg./disc,0 mm
same,zone of inhibition at 5 µg/disc,Proteus sp. PR7; 5 μg./disc,0 mm
same,zone of inhibition at 10 µg/disc,Proteus sp. PR7; 10 μg./disc,10.4 mm
same,zone of inhibition at 30 µg/disc,Proteus sp. PR7; 30 μg./disc,14 mm
